Data taken from US9784725B2, “Light refraction imaging to measure liquid volume” (University of Pittsburgh—Of the Commonwealth System of …, priority 2016, dated 2017).

Key:
[1] = test system: differentiated HBE cultures; experiment: ASL volume by refracted light microscopy of the meniscus, bumetanide treatment; format: cell-based, human; settings: 100 μM bumetanide for three days prior to measurement; mean ±SEM; control filters 10.6±1.0 μL; p<0.001
Description: (§1) HBE cells were cultured from excess pathological tissue following lung transplantation and organ donation under protocols approved by the Universities of Pittsburgh and North Carolina Investigational Review Boards. Cells were studied following 3-6 weeks of culture and considered differentiated when a mucociliary phenotype was apparent on phase contrast microscopy. HBE cultures grown in a twenty four well plate on 0.33 cm^2 filter inserts (See, e.g., FIG. 1B) were visualized with a standard cell culture microscope (Olympus CK40) with a 5× plain light objective (Zeiss) and imaged using a Scion CFW 1610M camera with μManager (30). […] In order to standardize the quantification of the meniscus image, a custom script using the open-source ImageJ software was developed. […] The length of the meniscus can be determined as the length from where the grey value is greater than min to the end of the array and the area under the curve (AUC) is measured using the numerically integrated rectangular rule. […] Therefore, the correlation between the derived parameters of the intensity profile and the ASL volume were determined, rather than mathematically calculating the volume based on the AUC of the intensity profile. […] Thus, the ASL volume can be measured from the image of the meniscus by integrating the […] value with the experimentally derived calibration curve shown in FIG. 4B. […]

[2] = test system: differentiated CF HBE cells; experiment: ASL volume by refracted light microscopy after apical fluid bolus, isotonic versus hypertonic; format: cell-based, human; settings: 5 μL PBS with 300 mM mannitol applied apically; ASL volume measured at 0, 4, 8, 24, 48 and 72 hours; FIG. 7
Description: as §1

## CCCCNc1cc(C(=O)O)cc(S(N)(=O)=O)c1Oc1ccccc1 [bumetanide]
[1]
  ASL volume: 1.1 ± 0.1 µL

## OC[C@@H](O)[C@@H](O)[C@H](O)[C@H](O)CO [mannitol]
[2]
  ASL volume expansion compared to isotonic fluid: more pronounced and prolonged ASL volume expansion
